Assay results from PubChem BioAssay (NCI).
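Cultured in 96-well plates, cells were exposed to test compound for 48 hours across five concentrations. TGI denotes the concentration required for complete inhibition of growth.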

Key:
Assay in all cases: NCI-60 cell line screen, 48 h
HCT-15 colon = system: HCT-15 colon
SR leukemia = system: SR leukemia
OVCAR-5 ovarian = system: OVCAR-5 ovarian
SK-OV-3 ovarian = system: SK-OV-3 ovarian
DU-145 prostate = system: DU-145 prostate
SF-539 CNS = system: SF-539 CNS
MOLT-4 leukemia = system: MOLT-4 leukemia
A549 NSCLC = system: A549 NSCLC
CAKI-1 renal = system: CAKI-1 renal
A498 renal = system: A498 renal
RXF 393 renal = system: RXF 393 renal
OVCAR-4 ovarian = system: OVCAR-4 ovarian
SNB-19 CNS = system: SNB-19 CNS
KM12 colon = system: KM12 colon
MDA-N = system: MDA-N
SN12C renal = system: SN12C renal
HCC-2998 colon = system: HCC-2998 colon
NCI-H226 lung = system: NCI-H226 lung
MCF7 breast = system: MCF7 breast
M14 melanoma = system: M14 melanoma
NCI-H23 lung = system: NCI-H23 lung
MDA-MB-435 = system: MDA-MB-435
SK-MEL-2 melanoma = system: SK-MEL-2 melanoma
SK-MEL-28 melanoma = system: SK-MEL-28 melanoma
PC-3 prostate = system: PC-3 prostate
K-562 leukemia = system: K-562 leukemia
MALME-3M melanoma = system: MALME-3M melanoma
NCI-H460 lung = system: NCI-H460 lung
U251 CNS = system: U251 CNS
RPMI-8226 leukemia = system: RPMI-8226 leukemia
HS 578T breast = system: HS 578T breast
HL-60(TB) leukemia = system: HL-60(TB) leukemia
CCRF-CEM leukemia = system: CCRF-CEM leukemia
SW-620 colon = system: SW-620 colon
HCT-116 colon = system: HCT-116 colon
UACC-62 melanoma = system: UACC-62 melanoma
TK-10 renal = system: TK-10 renal
HT29 colon = system: HT29 colon
SF-268 CNS = system: SF-268 CNS
COLO 205 colon = system: COLO 205 colon
UACC-257 melanoma = system: UACC-257 melanoma
HOP-62 NSCLC = system: HOP-62 NSCLC
NCI/ADR-RES ovarian = system: NCI/ADR-RES ovarian
ACHN renal = system: ACHN renal
T-47D breast = system: T-47D breast
EKVX NSCLC = system: EKVX NSCLC
SK-MEL-5 melanoma = system: SK-MEL-5 melanoma
IGROV1 ovarian = system: IGROV1 ovarian
LOX IMVI melanoma = system: LOX IMVI melanoma
MDA-MB-231 breast = system: MDA-MB-231 breast
OVCAR-8 ovarian = system: OVCAR-8 ovarian
UO-31 renal = system: UO-31 renal
SF-295 CNS = system: SF-295 CNS
HOP-92 NSCLC = system: HOP-92 NSCLC
BT-549 breast = system: BT-549 breast
NCI-H522 lung = system: NCI-H522 lung
SNB-75 CNS = system: SNB-75 CNS
786-0 renal = system: 786-0 renal
OVCAR-3 ovarian = system: OVCAR-3 ovarian

Structure (SMILES): COc1cc(C2c3cc4c(cc3OC(N3CCCCC3)C2C)OCO4)cc(OC)c1OC (stereo not drawn)
- TGI (HCT-15 colon): > 100 µM
- TGI (SR leukemia): > 54.2 µM
- TGI (OVCAR-5 ovarian): > 45.7 µM
- TGI (SK-OV-3 ovarian): 12.6 µM
- TGI (DU-145 prostate): 19.8 µM
- TGI (SF-539 CNS): 5.9 µM
- TGI (MOLT-4 leukemia): 67.4 µM
- TGI (A549 NSCLC): 36.1 µM
- TGI (CAKI-1 renal): 17.5 µM
- TGI (A498 renal): 12.8 µM
- TGI (RXF 393 renal): 5.49 µM
- TGI (OVCAR-4 ovarian): > 100 µM
- TGI (SNB-19 CNS): 26.2 µM
- TGI (KM12 colon): 37.4 µM
- TGI (MDA-N): 3.28 µM
- TGI (SN12C renal): > 100 µM
- TGI (HCC-2998 colon): 8.39 µM
- TGI (NCI-H226 lung): 13.5 µM
- TGI (MCF7 breast): 19.4 µM
- TGI (M14 melanoma): 15 µM
- TGI (NCI-H23 lung): > 49.8 µM
- TGI (MDA-MB-435): 2.91 µM
- TGI (SK-MEL-2 melanoma): 14.9 µM
- TGI (SK-MEL-28 melanoma): > 100 µM
- TGI (PC-3 prostate): > 100 µM
- TGI (K-562 leukemia): 13.7 µM
- TGI (MALME-3M melanoma): > 84.6 µM
- TGI (NCI-H460 lung): 18 µM
- TGI (U251 CNS): 12.7 µM
- TGI (RPMI-8226 leukemia): 37.9 µM
- TGI (HS 578T breast): 7.23 µM
- TGI (HL-60(TB) leukemia): > 22.2 µM
- TGI (CCRF-CEM leukemia): 23.2 µM
- TGI (SW-620 colon): > 55.4 µM
- TGI (HCT-116 colon): 15.3 µM
- TGI (UACC-62 melanoma): 47 µM
- TGI (TK-10 renal): 35.4 µM
- TGI (HT29 colon): 19.8 µM
- TGI (SF-268 CNS): > 53.7 µM
- TGI (COLO 205 colon): 11.3 µM
- TGI (UACC-257 melanoma): > 82.7 µM
- TGI (HOP-62 NSCLC): 10.2 µM
- TGI (NCI/ADR-RES ovarian): 17.1 µM
- TGI (ACHN renal): 28.7 µM
- TGI (T-47D breast): > 53.8 µM
- TGI (EKVX NSCLC): > 100 µM
- TGI (SK-MEL-5 melanoma): 17.6 µM
- TGI (IGROV1 ovarian): 26 µM
- TGI (LOX IMVI melanoma): 45 µM
- TGI (MDA-MB-231 breast): 21 µM
- TGI (OVCAR-8 ovarian): > 63.6 µM
- TGI (UO-31 renal): 46.2 µM
- TGI (SF-295 CNS): 5.77 µM
- TGI (HOP-92 NSCLC): 48.1 µM
- TGI (BT-549 breast): > 100 µM
- TGI (NCI-H522 lung): 9.99 µM
- TGI (SNB-75 CNS): 19.3 µM
- TGI (786-0 renal): 16.3 µM
- TGI (OVCAR-3 ovarian): 6.66 µM

Structure (SMILES): O=c1[nH]c2cc(C(F)(F)F)ccc2nc1CBr
- TGI (HCT-15 colon): 33.3 µM
- TGI (SR leukemia): > 100 µM
- TGI (OVCAR-5 ovarian): 29.3 µM
- TGI (SK-OV-3 ovarian): 35.2 µM
- TGI (DU-145 prostate): 23.1 µM
- TGI (SF-539 CNS): 16.1 µM
- TGI (MOLT-4 leukemia): > 100 µM
- TGI (A549 NSCLC): 27.4 µM
- TGI (CAKI-1 renal): 17.5 µM
- TGI (A498 renal): 33 µM
- TGI (RXF 393 renal): 25.2 µM
- TGI (OVCAR-4 ovarian): 32.3 µM
- TGI (SNB-19 CNS): 32.7 µM
- TGI (KM12 colon): 31.4 µM
- TGI (MDA-N): 26.9 µM
- TGI (SN12C renal): 34.8 µM
- TGI (HCC-2998 colon): 33.2 µM
- TGI (NCI-H226 lung): 26.7 µM
- TGI (MCF7 breast): 21.7 µM
- TGI (M14 melanoma): 21.1 µM
- TGI (NCI-H23 lung): 38.6 µM
- TGI (MDA-MB-435): 26.2 µM
- TGI (SK-MEL-2 melanoma): 26.6 µM
- TGI (SK-MEL-28 melanoma): 30 µM
- TGI (PC-3 prostate): 26.3 µM
- TGI (K-562 leukemia): > 100 µM
- TGI (MALME-3M melanoma): 27.4 µM
- TGI (NCI-H460 lung): 32.3 µM
- TGI (U251 CNS): 24.8 µM
- TGI (RPMI-8226 leukemia): 69.8 µM
- TGI (HS 578T breast): 56.6 µM
- TGI (HL-60(TB) leukemia): 14.3 µM
- TGI (CCRF-CEM leukemia): 5.73 µM
- TGI (SW-620 colon): 37.6 µM
- TGI (HCT-116 colon): 28.7 µM
- TGI (UACC-62 melanoma): 23.2 µM
- TGI (TK-10 renal): 27.9 µM
- TGI (HT29 colon): 38.6 µM
- TGI (SF-268 CNS): 59.1 µM
- TGI (COLO 205 colon): 35.8 µM
- TGI (UACC-257 melanoma): 28.7 µM
- TGI (HOP-62 NSCLC): 28.7 µM
- TGI (NCI/ADR-RES ovarian): 50.4 µM
- TGI (ACHN renal): 20.2 µM
- TGI (T-47D breast): 33.3 µM
- TGI (EKVX NSCLC): 29.5 µM
- TGI (SK-MEL-5 melanoma): 28.5 µM
- TGI (IGROV1 ovarian): 24.5 µM
- TGI (LOX IMVI melanoma): 12.8 µM
- TGI (MDA-MB-231 breast): 35.6 µM
- TGI (OVCAR-8 ovarian): 39.6 µM
- TGI (UO-31 renal): 18.1 µM
- TGI (SF-295 CNS): 28.9 µM
- TGI (HOP-92 NSCLC): 11.1 µM
- TGI (BT-549 breast): 27.5 µM
- TGI (NCI-H522 lung): 1.52 µM
- TGI (SNB-75 CNS): 30.7 µM
- TGI (786-0 renal): 19.2 µM
- TGI (OVCAR-3 ovarian): 23.7 µM
